Reference: PMC5218480 (PLoS ONE, 2017)

System: MV-4-11 cells
Test: Gene expression microarray analysis (Affymetrix PrimeView) and GSEA
Assay type: cell-based, human
Parameters: RFU PODN (11730768_x_at) / Fold change /veh PODN (11730768_x_at) / RFU LINC00158 (11744669_a_at) / Fold change /veh LINC00158 (11744669_a_at) / RFU DUSP10 (11751237_a_at) / Fold change /veh DUSP10 (11751237_a_at) / RFU ID3 (11757404_x_at) / Fold change /veh ID3 (11757404_x_at) / RFU PLEKHG5 (11737974_s_at) / Fold change /veh PLEKHG5 (11737974_s_at) / RFU LRRC4B (11730491_at) / Fold change /veh LRRC4B (11730491_at) / RFU GIMAP4 (11747438_a_at) / Fold change /veh GIMAP4 (11747438_a_at) / RFU KRT8 (11758183_x_at) / Fold change /veh KRT8 (11758183_x_at) / RFU CNN1 (11734310_a_at) / Fold change /veh CNN1 (11734310_a_at) / RFU VPS37D (11726825_at) / Fold change /veh VPS37D (11726825_at) / RFU C10orf10 (11716522_x_at) / Fold change /veh C10orf10 (11716522_x_at) / RFU KIR2DL2 /// KIR2DL4 /// KIR2DL5A /// KIR2DL5B /// KIR2DS1 /// KIR2DS2 /// KIR2DS3 /// KIR2DS4 /// KIR3DL3 /// KIR3DL3 /// KIR3DS1 (11738374_at) / Fold change /veh KIR2DL2 /// KIR2DL4 /// KIR2DL5A /// KIR2DL5B /// KIR2DS1 /// KIR2DS2 /// KIR2DS3 /// KIR2DS4 /// KIR3DL3 /// KIR3DL3 /// KIR3DS1 (11738374_at) / RFU C1QL1 (11718748_at) / Fold change /veh C1QL1 (11718748_at) / RFU TMPRSS4 (11747572_a_at) / Fold change /veh TMPRSS4 (11747572_a_at) / RFU HAMP (11756126_x_at) / Fold change /veh HAMP (11756126_x_at) / RFU RNFT2 (11725882_a_at) / Fold change /veh RNFT2 (11725882_a_at) / RFU NR4A2 (11747474_a_at) / Fold change /veh NR4A2 (11747474_a_at) / RFU ABCC12 (11746883_a_at) / Fold change /veh ABCC12 (11746883_a_at) / RFU TMEM136 (11760407_x_at) / Fold change /veh TMEM136 (11760407_x_at) / RFU CLDN22 /// WWC2 (11732394_at) / Fold change /veh CLDN22 /// WWC2 (11732394_at) / RFU HLA-DPB1 (11760878_x_at) / Fold change /veh HLA-DPB1 (11760878_x_at) / RFU SPINT1 (11716480_a_at) / Fold change /veh SPINT1 (11716480_a_at) / RFU GAP43 (11754022_s_at) / Fold change /veh GAP43 (11754022_s_at) / RFU A4GNT (11735810_at) / Fold change /veh A4GNT (11735810_at) / RFU PRB3 (11715151_x_at) / Fold change /veh PRB3 (11715151_x_at) / RFU TUBB4B (11761932_at) / Fold change /veh TUBB4B (11761932_at) / RFU CAPN14 (11732068_a_at) / Fold change /veh CAPN14 (11732068_a_at) / RFU TMCC2 (11721928_a_at) / Fold change /veh TMCC2 (11721928_a_at) / RFU IRGQ (11745062_a_at) / Fold change /veh IRGQ (11745062_a_at) / RFU FAM174B (11720279_a_at) / Fold change /veh FAM174B (11720279_a_at) / RFU TMPRSS4 (11748680_a_at) / Fold change /veh TMPRSS4 (11748680_a_at) / RFU FAM212B (11763350_a_at) / Fold change /veh FAM212B (11763350_a_at) / RFU PLEKHG5 (11743358_a_at) / Fold change /veh PLEKHG5 (11743358_a_at) / RFU ZSCAN30 (11745921_a_at) / Fold change /veh ZSCAN30 (11745921_a_at) / RFU CMKLR1 (11741424_a_at) / Fold change /veh CMKLR1 (11741424_a_at) / RFU LOC101060620 /// MAPK8IP1 (11723275_at) / Fold change /veh LOC101060620 /// MAPK8IP1 (11723275_at) / RFU SPTSSB (11747773_x_at) / Fold change /veh SPTSSB (11747773_x_at) / RFU PRSS12 (11739890_at) / Fold change /veh PRSS12 (11739890_at) / RFU BIN1 (11741810_x_at) / Fold change /veh BIN1 (11741810_x_at) / RFU WNT11 (11732464_a_at) / Fold change /veh WNT11 (11732464_a_at) / RFU C10orf10 (11716521_a_at) / Fold change /veh C10orf10 (11716521_a_at) / RFU C5orf56 (11738089_at) / Fold change /veh C5orf56 (11738089_at) / RFU CYB561 (11721691_x_at) / Fold change /veh CYB561 (11721691_x_at) / RFU ANKRD19P (11752326_a_at) / Fold change /veh ANKRD19P (11752326_a_at) / RFU OR2T12 /// OR2T33 /// OR2T8 (11738714_s_at) / Fold change /veh OR2T12 /// OR2T33 /// OR2T8 (11738714_s_at) / RFU VCAN (11748164_a_at) / Fold change /veh VCAN (11748164_a_at) / RFU JSRP1 (11732532_at) / Fold change /veh JSRP1 (11732532_at) / RFU KRTAP10-11 (11738290_x_at) / Fold change /veh KRTAP10-11 (11738290_x_at) / RFU MYO3A (11730013_a_at) / Fold change /veh MYO3A (11730013_a_at) / RFU EBF3 (11725865_a_at) / Fold change /veh EBF3 (11725865_a_at) / RFU CAMK2N1 (11719241_x_at) / Fold change /veh CAMK2N1 (11719241_x_at) / RFU C5orf56 (11738088_a_at) / Fold change /veh C5orf56 (11738088_a_at) / RFU OLFML3 (11715873_a_at) / Fold change /veh OLFML3 (11715873_a_at) / RFU LOC100653217 /// NTM (11731650_a_at) / Fold change /veh LOC100653217 /// NTM (11731650_a_at) / RFU MAPK11 (11762145_a_at) / Fold change /veh MAPK11 (11762145_a_at) / RFU FIZ1 (11724087_x_at) / Fold change /veh FIZ1 (11724087_x_at) / RFU OASL (11726364_x_at) / Fold change /veh OASL (11726364_x_at) / RFU SOX15 (11748057_x_at) / Fold change /veh SOX15 (11748057_x_at) / RFU CD79A (11719716_a_at) / Fold change /veh CD79A (11719716_a_at) / RFU HIST1H1D (11736915_at) / Fold change /veh HIST1H1D (11736915_at) / RFU CASKIN2 (11723855_a_at) / Fold change /veh CASKIN2 (11723855_a_at) / RFU LOC730098 (11760151_x_at) / Fold change /veh LOC730098 (11760151_x_at) / RFU OR4N2 (11742367_at) / Fold change /veh OR4N2 (11742367_at) / RFU PRRT2 (11749266_a_at) / Fold change /veh PRRT2 (11749266_a_at) / RFU SNX32 (11753110_a_at) / Fold change /veh SNX32 (11753110_a_at) / RFU CDHR5 (11726645_a_at) / Fold change /veh CDHR5 (11726645_a_at) / RFU RCAN1 (11760418_a_at) / Fold change /veh RCAN1 (11760418_a_at) / RFU FAM167A (11723789_a_at) / Fold change /veh FAM167A (11723789_a_at) / RFU FAM26E (11764081_at) / Fold change /veh FAM26E (11764081_at) / RFU ISYNA1 (11749810_s_at) / Fold change /veh ISYNA1 (11749810_s_at) / RFU ACY1 (11761880_at) / Fold change /veh ACY1 (11761880_at) / RFU 11764098_at / Fold change /veh 11764098_at / RFU SAMD14 (11745864_x_at) / Fold change /veh SAMD14 (11745864_x_at) / RFU NPB (11741838_a_at) / Fold change /veh NPB (11741838_a_at) / RFU TMPRSS6 (11731388_a_at) / Fold change /veh TMPRSS6 (11731388_a_at) / RFU KRTAP10-2 (11738614_at) / Fold change /veh KRTAP10-2 (11738614_at) / RFU ARHGAP8 /// PRR5-ARHGAP8 (11727945_x_at) / Fold change /veh ARHGAP8 /// PRR5-ARHGAP8 (11727945_x_at) / RFU KRTAP5-7 /// NADSYN1 (11734609_at) / Fold change /veh KRTAP5-7 /// NADSYN1 (11734609_at) / RFU RASL12 (11751679_a_at) / Fold change /veh RASL12 (11751679_a_at) / RFU CDKN2B (11736163_a_at) / Fold change /veh CDKN2B (11736163_a_at) / RFU PRF1 (11729649_at) / Fold change /veh PRF1 (11729649_at) / RFU, ZNF638 /// ZNF638-IT1 / Fold change vs veh, ZNF638 /// ZNF638-IT1 / RFU, PANK3 / Fold change vs veh, PANK3 / RFU, SH3YL1 / Fold change vs veh, SH3YL1 / RFU, ZEB2 / Fold change vs veh, ZEB2 / RFU, NRIP1 / Fold change vs veh, NRIP1 / RFU, PTTG1IP / Fold change vs veh, PTTG1IP / RFU, CAPN2 / Fold change vs veh, CAPN2 / RFU, MED14 / Fold change vs veh, MED14 / RFU, SNORA58 / Fold change vs veh, SNORA58 / RFU, C1orf63 / Fold change vs veh, C1orf63 / RFU, LRRFIP1 / Fold change vs veh, LRRFIP1 / RFU, NDUFAF7 / Fold change vs veh, NDUFAF7 / RFU, SLC12A2 / Fold change vs veh, SLC12A2 / RFU, IBTK / Fold change vs veh, IBTK / RFU, ESF1 / Fold change vs veh, ESF1 / Fold change vs veh, TMEM50B / RFU, TAOK1 / Fold change vs veh, TAOK1 / RFU, ACBD3 / Fold change vs veh, ACBD3 / RFU, TMA16 / Fold change vs veh, TMA16 / RFU, RWDD3 / Fold change vs veh, RWDD3 / RFU, BCAT1 / Fold change vs veh, BCAT1 / RFU, EDEM3 / Fold change vs veh, EDEM3 / RFU, TMEM33 / Fold change vs veh, TMEM33 / RFU, WDR75 / Fold change vs veh, WDR75 / RFU, AHCTF1 / Fold change vs veh, AHCTF1 / RFU, TFRC / Fold change vs veh, TFRC / RFU, ZDHHC17 / Fold change vs veh, ZDHHC17 / RFU, NOM1 / Fold change vs veh, NOM1 / RFU, ARL8B / Fold change vs veh, ARL8B / RFU, ZBTB11 / Fold change vs veh, ZBTB11 / RFU, TAMM41 / Fold change vs veh, TAMM41 / RFU, KIAA1704 /// LOC100996395 / Fold change vs veh, KIAA1704 /// LOC100996395 / RFU, ING1 / Fold change vs veh, ING1 / RFU, TRMT61B / Fold change vs veh, TRMT61B / RFU, FUBP3 / Fold change vs veh, FUBP3 / RFU, TP53 / Fold change vs veh, TP53 / RFU, TNKS2 / Fold change vs veh, TNKS2 / RFU, ZFP14 / Fold change vs veh, ZFP14 / RFU, ACTR2 / Fold change vs veh, ACTR2 / RFU, PPP3R1 / Fold change vs veh, PPP3R1 / RFU, PIK3R1 / Fold change vs veh, PIK3R1 / RFU, HNRNPA1 / Fold change vs veh, HNRNPA1 / RFU, RNF170 / Fold change vs veh, RNF170 / RFU, ZNF28 / Fold change vs veh, ZNF28 / RFU, RNGTT / Fold change vs veh, RNGTT / RFU, OGT / Fold change vs veh, OGT / RFU, BRD1 / Fold change vs veh, BRD1 / RFU, MARS / Fold change vs veh, MARS / RFU, ZNF655 / Fold change vs veh, ZNF655 / RFU, FAHD1 / Fold change vs veh, FAHD1 / RFU, BDP1 / Fold change vs veh, BDP1 / RFU, LRRCC1 / Fold change vs veh, LRRCC1 / RFU, ARID1A / Fold change vs veh, ARID1A / RFU, ZNF146 / Fold change vs veh, ZNF146 / RFU, ZNF330 / Fold change vs veh, ZNF330 / RFU, GPN3 / Fold change vs veh, GPN3 / RFU, C9orf123 / Fold change vs veh, C9orf123 / RFU, N4BP2L2 / Fold change vs veh, N4BP2L2 / RFU, ARFIP1 / Fold change vs veh, ARFIP1 / RFU, FAM179B / Fold change vs veh, FAM179B / RFU, BCL10 / Fold change vs veh, BCL10 / RFU, UHRF1BP1L / Fold change vs veh, UHRF1BP1L / RFU, BET1 / Fold change vs veh, BET1 / RFU, CNOT2 / Fold change vs veh, CNOT2 / RFU, ZNF268 / Fold change vs veh, ZNF268 / Fold change vs veh, ZNF507 / RFU, DGCR2 / Fold change vs veh, DGCR2 / RFU, WDSUB1 / Fold change vs veh, WDSUB1 / Fold change vs veh, HSP90B1 /// MIR3652 / RFU, ADSS / Fold change vs veh, ADSS / RFU, GK / Fold change vs veh, GK / RFU, ZNF148 / Fold change vs veh, ZNF148 / RFU, TAF9 / Fold change vs veh, TAF9 / RFU, SLC1A5 / Fold change vs veh, SLC1A5 / RFU, SLMO2 / Fold change vs veh, SLMO2 / RFU, ABCC4 / Fold change vs veh, ABCC4 / RFU, LOC101060439 /// RAP1B / Fold change vs veh, LOC101060439 /// RAP1B / RFU, RFX7 / Fold change vs veh, RFX7 / RFU, GTPBP10 / Fold change vs veh, GTPBP10 / RFU, CNEP1R1 / Fold change vs veh, CNEP1R1 / RFU, BIVM-ERCC5 /// ERCC5 / Fold change vs veh, BIVM-ERCC5 /// ERCC5 / RFU, ILF3 / Fold change vs veh, ILF3 / RFU 11762660_at / Fold change /veh 11762660_at / RFU VCAN (11757783_s_at) / Fold change /veh VCAN (11757783_s_at) / RFU DDX43 (11728927_at) / Fold change /veh DDX43 (11728927_at) / RFU KRT8 (11758188_x_at) / Fold change /veh KRT8 (11758188_x_at) / RFU NKD1 (11759106_at) / Fold change /veh NKD1 (11759106_at) / RFU SRD5A1 (11742802_a_at) / Fold change /veh SRD5A1 (11742802_a_at) / RFU TPSAB1 /// TPSB2 (11721975_s_at) / Fold change /veh TPSAB1 /// TPSB2 (11721975_s_at) / RFU GSTM3 (11746129_a_at) / Fold change /veh GSTM3 (11746129_a_at) / RFU IL23R (11737362_x_at) / Fold change /veh IL23R (11737362_x_at) / RFU TMEM51 (11727254_a_at) / Fold change /veh TMEM51 (11727254_a_at) / RFU PIWIL2 (11732686_x_at) / Fold change /veh PIWIL2 (11732686_x_at) / RFU ORM1 (11744905_x_at) / Fold change /veh ORM1 (11744905_x_at) / RFU CCDC152 (11743942_at) / Fold change /veh CCDC152 (11743942_at) / RFU ECM1 (11717891_a_at) / Fold change /veh ECM1 (11717891_a_at) / RFU IL23R (11748794_a_at) / Fold change /veh IL23R (11748794_a_at) / RFU TNFAIP8L3 (11732012_x_at) / Fold change /veh TNFAIP8L3 (11732012_x_at) / RFU MBOAT4 (11741988_at) / Fold change /veh MBOAT4 (11741988_at) / RFU 11764193_at / Fold change /veh 11764193_at / RFU TMEM53 (11763286_at) / Fold change /veh TMEM53 (11763286_at) / RFU MAGEB2 (11727129_at) / Fold change /veh MAGEB2 (11727129_at) / RFU TMEM200A (11744735_a_at) / Fold change /veh TMEM200A (11744735_a_at) / RFU CCDC152 (11751479_a_at) / Fold change /veh CCDC152 (11751479_a_at) / RFU FAM211A (11726209_a_at) / Fold change /veh FAM211A (11726209_a_at) / RFU RGS16 (11746705_a_at) / Fold change /veh RGS16 (11746705_a_at) / RFU VCAN (11755009_s_at) / Fold change /veh VCAN (11755009_s_at) / RFU RHOB (11743442_s_at) / Fold change /veh RHOB (11743442_s_at) / RFU RGS16 (11720943_a_at) / Fold change /veh RGS16 (11720943_a_at) / RFU RGS16 (11720944_at) / Fold change /veh RGS16 (11720944_at) / RFU, VPS4B / Fold change vs veh, VPS4B / RFU, CREB1 / Fold change vs veh, CREB1 / RFU, DNAJC13 / Fold change vs veh, DNAJC13 / RFU, GNAQ / Fold change vs veh, GNAQ / RFU, CDK5R1 / Fold change vs veh, CDK5R1 / RFU, ZRANB3 / Fold change vs veh, ZRANB3 / RFU, CUL4A / Fold change vs veh, CUL4A / RFU, CCNY / Fold change vs veh, CCNY / RFU, UFL1 / Fold change vs veh, UFL1 / RFU, COG3 / Fold change vs veh, COG3 / RFU, DIAPH2 / Fold change vs veh, DIAPH2 / RFU, SKA2 / Fold change vs veh, SKA2 / RFU, AFF3 / Fold change vs veh, AFF3 / RFU, LMF1 / Fold change vs veh, LMF1 / RFU, IPO11 / Fold change vs veh, IPO11 / RFU, DFFB / Fold change vs veh, DFFB / RFU, FOXP1 / Fold change vs veh, FOXP1 / RFU, CARD8 / Fold change vs veh, CARD8 / RFU, STRN3 / Fold change vs veh, STRN3 / RFU, ADK / Fold change vs veh, ADK / RFU, RASSF2 / Fold change vs veh, RASSF2 / RFU, WIPF1 / Fold change vs veh, WIPF1 / RFU, LARP1B / Fold change vs veh, LARP1B / RFU, RASA1 / Fold change vs veh, RASA1 / RFU, RB1 / Fold change vs veh, RB1 / RFU, PPFIA1 / Fold change vs veh, PPFIA1 / RFU, MAT2A / Fold change vs veh, MAT2A / RFU, CCT5 / Fold change vs veh, CCT5 / RFU, WDR92 / Fold change vs veh, WDR92 / RFU, CUX1 / Fold change vs veh, CUX1 / RFU, TTC7A / Fold change vs veh, TTC7A / RFU, TMEM135 / Fold change vs veh, TMEM135 / RFU, DEPTOR / Fold change vs veh, DEPTOR / RFU, CPM / Fold change vs veh, CPM / RFU, DNAJB6 / Fold change vs veh, DNAJB6 / RFU, CACNA2D3 / Fold change vs veh, CACNA2D3 / RFU, DTX4 / Fold change vs veh, DTX4 / RFU, TFCP2 / Fold change vs veh, TFCP2 / RFU, GMCL1 /// GMCL1P1 / Fold change vs veh, GMCL1 /// GMCL1P1 / RFU, AEBP2 / Fold change vs veh, AEBP2 / RFU, SNHG1 /// SNORD22 /// SNORD25 /// SNORD26 /// SNORD27 /// SNORD28 /// SNORD29 /// SNORD31 / Fold change vs veh, SNHG1 /// SNORD22 /// SNORD25 /// SNORD26 /// SNORD27 /// SNORD28 /// SNORD29 /// SNORD31 / Fold change (Aza/veh), C12orf56 (ProbeSet 11735607_a_at) / Fold change (ACY-1035/veh), C12orf56 (ProbeSet 11735607_a_at) / Fold change (Aza/veh), FGFR1OP (ProbeSet 11751329_s_at) / Fold change (ACY-1035/veh), FGFR1OP (ProbeSet 11751329_s_at) / Fold change (Aza/veh), VPS36 (ProbeSet 11739960_a_at) / Fold change (ACY-1035/veh), VPS36 (ProbeSet 11739960_a_at) / RFU SYPL1 (11715823_x_at) / Fold change /veh SYPL1 (11715823_x_at) / RFU IGFBP7 (11715501_s_at) / Fold change /veh IGFBP7 (11715501_s_at) / RFU REEP3 (11722064_at) / Fold change /veh REEP3 (11722064_at) / RFU IGLL1 (11728026_x_at) / Fold change /veh IGLL1 (11728026_x_at): dose or concentration left out as unconfirmed
Conditions: MV-4-11 cells, 48 hours

Nc1ncn([C@@H]2O[C@H](CO)[C@@H](O)[C@H]2O)c(=O)n1 [azacitidine]
Fold change /veh FAM26E (11764081_at): 0.84
